For one data set, the target named is T1, human PD-1/PD-L1 binding (Homo sapiens, UniProt Q9NZQ7).
T1 construct: PD-L1-His protein (19 to 238 amino acids) (Abcam #ab167713); purchased Abcam (PD-L1-His); R&D (PD-1-Fc) ab167713; 1086-PD
Kind of data set: Inhibition of human PD-1/PD-L1 binding (TR-FRET/HTRF). Conditions: TR-FRET, PD-L1-His and PD-1-Fc; read-out: PD-1/PD-L1 binding IC50. A digest of the protocol: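 PD-L1-His (aa 19–238, diluted to 10 nM) and PD-1-Fc (aa 25–167, diluted to 20 nM) incubated with compounds (10 μM or 1 μM top, 3-fold, 11 doses) 60 min at room temperature, then anti-6HIS Eu cryptate/anti-human IgG-XL665 added for 3 h RT or overnight 4 °C. HTRF 665/620 nm ratio gave inhibition and IC50.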

Another data set has as its target T2, human PD-L1 protein (Homo sapiens, UniProt Q9NZQ7).
T2 construct: purchased Acro Biosystems PD1-H5229
Briefly: Thermal shift: melting temperature of PD-L1 protein. It is filed as binding. As to conditions: read-out: ΔTm (° C.). The method, boiled down:
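Human PD-L1 at 2 μM final was tested in […], 150 mM NaCl with SYPRO Orange, heated 25→95 °C at 0.03 °C/s in a PCR melt-curve run. Tm was taken per treatment; ΔTm is the shift relative to DMSO vehicle.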

The nature of data set [1]: Pharmacokinetics test in Balb/C mice. The class given is in vivo. Conditions: male, mouse, po, p.o. 5 mg/kg, plasma; for MRT inf: read-out: Average residence time MRT0−∞; for AUC(0-t): read-out: Curve area AUC0−t; for Cmax: read-out: Drug concentration in plasma Cmax; for half-life: read-out: Half life t1/2 (converted); for Tmax: read-out: Peak time tmax. As for the experimental part: Test Embodiment 6. Pharmacokinetics Test in Balb/C Mice
Taking Balb/C mice as the test animals, the pharmacokinetic behavior in the plasma of mice of the following compound embodiments was studied when orally administered at a dose of 5 mg/kg.
Balb/C Mouse 6/embodiment, male, Shanghai Jisijie Laboratory Animal Co., Ltd., animal production license number (SCXK (Shanghai) 2013-0006 No. 311620400001794).
0.5% HPMC (1% Tween 80), dissolved by sonication, to prepare a clear solution or a homogeneous suspension.
Balb/C mice, male; p.o. after overnight fasting, respectively, at a dose of 5 mg/kg, administered in a volume of 10 mL/kg.
Before and after administration of mice, at 0, 0.5, 1, 2, 4, 6, 8 and 24 hours, 0.1 mL of blood was collected from the orbit, placed in an EDTA-K2 test tube, and centrifuged at 6000 rpm at 4° C. for 6 min to separate the plasma, stored at −80° C.
1) 40 μL of plasma samples were added to 160 μL of acetonitrile for precipitation, mixed and centrifuged at 3500×g for 5 to 20 minutes.
2) 100 μL of the supernatant solution after treatment was taken for LC/MS/MS to analyze the concentration of the compounds to be tested.
2.6 Liquid Phase Analysis • Liquid phase condition: Shimadzu LC-20AD pump • MS conditions: AB Sciex API 4000 Mass Spectrometer • Chromatographic column: phenomenex Gemiu 5 μm C18 50×4.6 mm • Mobile phase: A solution was aqueous 0.1% formic acid solution, B solution was acetonitrile • Flow rate: 0.8 mL/min • Elution time: 0 to 4.0 minutes, the eluent was as follows:
The main parameters of pharmacokinetics were calculated with WinNonlin 8.2, and the results of the mice pharmacokinetic experiments were shown in the following table: […]

Setting [2] is: compound 10 μM, PD-L1 protein 2 μM, Tm minus DMSO vehicle control.

Experimental findings from patent US20230105212A1, “BIPHENYL DERIVATIVE INHIBITOR, PREPARATION METHOD THEREFOR AND USE THEREOF” (SHANGHAI HANSOH BIOMEDICAL CO., LTD., priority 2020, published 2023) are described below.

Molecules are shown by their SMILES. Read-outs that look alike come from different tables or passages of the source.

By ΔTm is commonly meant the shift of the melting midpoint relative to a reference. By Tmax is commonly meant the time at which the peak concentration occurs.

T1 sequence (Q9NZQ7 19-238): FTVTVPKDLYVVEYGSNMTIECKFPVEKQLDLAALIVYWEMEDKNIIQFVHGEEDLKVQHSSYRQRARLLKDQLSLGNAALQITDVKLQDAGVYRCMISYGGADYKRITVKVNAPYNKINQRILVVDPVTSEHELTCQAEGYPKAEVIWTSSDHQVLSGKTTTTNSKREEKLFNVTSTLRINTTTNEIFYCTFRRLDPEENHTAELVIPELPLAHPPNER
T2 sequence (Q9NZQ7 19-238 limits assumed): as the sequence (Q9NZQ7 19-238) above

Take `COc1nc(-c2cccc(-c3cccc(NC(=O)c4nc5c(n4C)CCN(C)C5)c3Cl)c2Cl)ccc1CN1CC2(C1)CN(C(C)=O)C2` [Embodiment 123, N-(3′-(5-((6-Acetyl-2,6-diazaspiro[3.3]heptan-2-yl)methyl)-6-methoxypyridin-2-yl)-2,2′-dichloro-[1,1′-biphenyl]-3-yl)-1,5-dimethyl-4,5,6,7-tetrahydro-1H-imidazo[4,5-c]pyridine-2-carboxamide]: at human PD-1/PD-L1 binding, the IC50 stood at 1.6 nM. Also, on human PD-L1 protein, the ΔTm at 10 µM is 16.5 °C. Moreover, in data set [1], the MRT inf came to 12.8 h, the AUC(0-t) was 778 ng·h/mL, the Cmax came out at 59 ng/mL and the half-life is 6.7 h. Besides, the Tmax in data set [1] amounted to 4 h.

Take `COc1nc(-c2cccc(-c3cccc(NC(=O)c4nc5c(n4C)CCN(C)C5)c3Cl)c2Cl)ccc1CN1CC2(CC(NC(C)=O)C2)C1` [Embodiment 234, N-(3′-(5-((6-Acetylamino-2-azaspiro[3.3]heptan-2-yl)methyl)-6-methoxypyridin-2-yl)-2,2′-dichloro-[1,1′-biphenyl]-3-yl)-1,5-dimethyl-4,5,6,7-tetrahydro-1H-imidazo[4,5-c]pyridine-2-carboxamide]: the IC50 on human PD-1/PD-L1 binding came to 2.5 nM. For the same compound, the ΔTm at 10 µM on human PD-L1 protein (setting [2]) came out at 15.6 °C. Besides, in data set [1], the MRT inf is 20.8 h, the AUC(0-t) was found to be 273 ng·h/mL, the Cmax was found to be 25 ng/mL and the half-life was 14.3 h. In data set [1], the Tmax was determined as 2 h.

In the case of `COc1nc(-c2cccc(-c3cccc(NC(=O)c4nc5c(n4C)CCN(C)C5)c3Cl)c2Cl)ccc1CN1CC2(C1)CN(C(=O)C(C)C)C2` [Embodiment 186, N-(2,2′-Dichloro-3′-(5-((6-isobutyryl-2,6-diazaspiro[3.3]heptan-2-yl)methyl)-6-methoxypyridin-2-yl)-[1,1′-biphenyl]-3-yl)-1,5-dimethyl-4,5,6,7-tetrahydro-1H-imidazo[4,5-c]pyridine-2-carboxamide], the IC50 on human PD-1/PD-L1 binding turned out to be 8.1 nM. For the same compound, at human PD-L1 protein (setting [2]), the ΔTm at 10 µM came to 21.4 °C. Moreover, in data set [1], the MRT inf is 22.5 h, the AUC(0-t) was found to be 537 ng·h/mL, the Cmax came to 31 ng/mL and the half-life was 15.2 h. In data set [1], the Tmax was determined as 2 h.

Take `COc1nc(-c2cccc(-c3cccc(NC(=O)c4nc5c(n4C)CCN(C)C5)c3Cl)c2Cl)ncc1CN1CC(CO)C1` [Embodiment 223, N-(2,2′-Dichloro-3′-(5-((3-(hydroxymethyl)azetidin-1-yl)methyl)-4-methoxypyrimidin-2-yl)-[1,1′-biphenyl]-3-yl)-1,5-dimethyl-4,5,6,7-tetrahydro-1H-imidazo[4,5-c]pyridine-2-carboxamide]: the IC50 on human PD-1/PD-L1 binding was determined as 2.4 nM. For the same compound, at human PD-L1 protein (setting [2]), the ΔTm at 10 µM came to 12.3 °C. In data set [1], the MRT inf turned out to be 16 h, the AUC(0-t) amounted to 356 ng·h/mL, the Cmax is 24 ng/mL and the half-life was 10.5 h. Moreover, in data set [1], the Tmax was 1 h.

Regarding `COc1nc(-c2cccc(-c3cccc(NC(=O)c4nc5c(n4C)CCN(C)C5)c3Cl)c2Cl)ccc1CN1CC(NC(C)=O)C1` [Embodiment 180, N-(3′-(5-((3-Acetylaminoazetidin-1-yl)methyl)-6-methoxypyridin-2-yl)-2,2′-dichloro-[1,1′-biphenyl]-3-yl)-1,5-dimethyl-4,5,6,7-tetrahydro-1H-imidazo[4,5-c]pyridine-2-carboxamide], on human PD-1/PD-L1 binding, the IC50 worked out at 3.8 nM. Moreover, the ΔTm at 10 µM on human PD-L1 protein (setting [2]) is 20.6 °C. In addition, in data set [1], the MRT inf was 12.9 h, the AUC(0-t) came to 887 ng·h/mL, the Cmax turned out to be 116 ng/mL and the half-life is 9.5 h. Moreover, the Tmax in data set [1] was 2 h.

As for `COc1nc(-c2cccc(-c3cccc(NC(=O)c4nc5c(n4C)CCN(C)C5)c3Cl)c2Cl)ccc1CN1CC2(CCC(=O)N2)C1` [Embodiment 126, N-(2,2′-Dichloro-3′-(6-methoxy-5-((6-carbonyl-2,5-diazaspiro[3.4]octan-2-yl)methyl)pyridin-2-yl)-[1,1′-biphenyl]-3-yl)-1,5-dimethyl-4,5,6,7-tetrahydro-1H-imidazo[4,5-c]pyridine-2-carboxamide], the IC50 on human PD-1/PD-L1 binding is 2 nM. Besides, on human PD-L1 protein (setting [2]), the ΔTm at 10 µM is 17.1 °C. In addition, in data set [1], the MRT inf amounted to 12.3 h, the AUC(0-t) turned out to be 677 ng·h/mL, the Cmax is 54 ng/mL and the half-life was 8.4 h. Moreover, the Tmax in data set [1] was found to be 2 h.

In the case of `COc1nc(-c2cccc(-c3cccc(NC(=O)c4nc5c(n4C)CCN(C)C5)c3Cl)c2Cl)cnc1CN1CC2(C1)CN(C(C)=O)C2` [Embodiment 152, N-(3′-(5-((6-Acetyl-2,6-diazaspiro[3.3]heptan-2-yl)methyl)-6-methoxypyrazin-2-yl)-2,2′-dichloro-[1,1′-biphenyl]-3-yl)-1,5-dimethyl-4,5,6,7-tetrahydro-1H-imidazo[4,5-c]pyridine-2-carboxamide], on human PD-1/PD-L1 binding, the IC50 came to 1.3 nM. In addition, at human PD-L1 protein (setting [2]), the ΔTm at 10 µM stood at 16.8 °C. In data set [1], the MRT inf was determined as 10 h, the AUC(0-t) amounted to 1140 ng·h/mL, the Cmax was determined as 93 ng/mL and the Tmax came out at 8 h.

Regarding `COc1nc(-c2cccc(-c3cccc(NC(=O)c4nc5c(n4C)CCN(C)C5)c3Cl)c2Cl)ccc1CN1CC(F)C1` [Embodiment 120, N-(2,2′-Dichloro-3′-(5-((3-fluoroazetidin-1-yl)methyl)-6-methoxypyridin-2-yl)-[1,1′-biphenyl]-3-yl)-1,5-dimethyl-4,5,6,7-tetrahydro-1H-imidazo[4,5-c]pyridine-2-carboxamide], at human PD-1/PD-L1 binding, the IC50 was 7.4 nM. Further, on human PD-L1 protein, the ΔTm at 10 µM amounted to 15.8 °C. In data set [1], the MRT inf is 17 h, the AUC(0-t) worked out at 500 ng·h/mL, the Cmax came to 34 ng/mL and the half-life is 12 h. Further, the Tmax in data set [1] came out at 2 h.
